From patent publication US10888549B2, “Pharmaceutical agents targeting cancer stem cells” (THE JOHNS HOPKINS UNIVERSITY, priority 2016, dated 2021)

What was measured:
Assay type in all cases: cell-based, human
[1] = tested on: urothelial CSCs; test: Sphere formation assay (CSC properties)
Procedure: Sphere formation was induced by culturing cells (2×10^4/well) in DMEM/Ham's F12 50/50 Mix (Mediatech) supplemented with B-27 (Life Technologies), 20 ng/mL FGF-basic (Peprotech), 20 ng/mL EGF (Peprotech). Cell culture was performed in ultra-low attachment 6 well plates (Corning, Lowell, USA) for 10 days. The medium was replaced every other day. Sphere formation was evaluated using the inverted phase-contrast microscope, and single sphere with a diameter larger than 100 μm was counted using NIS-Elements Microscope Imaging Software. To redifferentiate spheres, spheres were plated in standard growth medium with 10% FBS in dishes supporting cell attachment, and incubated for 7 days. For self-renewal assay, primary spheres were collected by gentle centrifugation (5 min at 400×g), dissociated with Stempro Accutase Cell Dissociation Reagent (Life Technologies), and mechanically disrupted with a pipette. The cell suspension was sieved through 40 μm cell strainer cap filter to achieve a single-cell suspension, and then equal numbers of alive cells were plated in ultralow attachment plates to generate the second spheres. Again, spheres were counted on day 14 and digested to generate the third Spheres. All the experiments were performed in triplicate and repeated at least three times.

[2] = tested on: let-7; test: let-7 expression by Q-RT-PCR; settings: parental or spheroid bladder cancer cells
Procedure: Total RNA from cell lines was isolated using the RNeasy Plus Mini kit (Qiagen, Valencia, USA) according to the manufacturer's protocol. Total RNA extraction from bladder tissue was performed with the QIAzol Lysis Reagent (Qiagen) followed by phenol extraction and ethanol precipitation. Total RNA was eluted in DEPC treated water and stored at -80° C. Total RNA extraction from urine was performed using the […] Isolation Kit (Ambion, Austin, USA). These total RNA were converted to cDNA using the SuperScript III First-Strand Synthesis System (Life technologies, Carlsbad, USA), which was then used as a template for Q-RT-PCR. Q-RT-PCR was performed using the Fast SYBR Green Master Mix (Thermo Fisher Scientific, Waltham, USA) on a 7900HT Fast Real-Time PCR System (Life technologies) in triplicate. Micro RNA (miRNA) extraction was performed using the […] Isolation Kit, and was reverse transcribed using TaqMan reverse transcription kit (Applied Biosystems, Foster City, USA) and miRNA-specific RT primers provided with TaqMan microRNA assays (Applied Biosystems). Q-RT-PCR for miRNAs was performed using the TaqMan Universal PCR Master Mix according to the manufacturer's protocol. SDS software (Applied Biosystems) was used to determine cycle threshold (Ct) values. Expression level was quantified relative to β-actin for mRNA and RNU6B for miRNA using the 2-ΔΔCt method (12).

[3] = tested on: panel of miRNAs; test: Expression of a panel of miRNAs in BFTC 905 cells
Procedure: Total RNA from cell lines was isolated using the RNeasy Plus Mini kit (Qiagen, Valencia, USA) according to the manufacturer's protocol. Total RNA extraction from bladder tissue was performed with the QIAzol Lysis Reagent (Qiagen) followed by phenol extraction and ethanol precipitation. Total RNA was eluted in DEPC treated water and stored at −80° C. Total RNA extraction from urine was performed using the MirVana miRNA Isolation Kit (Ambion, Austin, USA). These total RNA were converted to cDNA using the SuperScript III First-Strand Synthesis System (Life technologies, Carlsbad, USA), which was then used as a template for Q-RT-PCR. Q-RT-PCR was performed using the Fast SYBR Green Master Mix (Thermo Fisher Scientific, Waltham, USA) on a 7900HT Fast Real-Time PCR System (Life technologies) in triplicate. Micro RNA (miRNA) extraction was performed using the MirVana miRNA Isolation Kit, and was reverse transcribed using TaqMan reverse transcription kit (Applied Biosystems, Foster City, USA) and miRNA-specific RT primers provided with TaqMan microRNA assays (Applied Biosystems). Q-RT-PCR for miRNAs was performed using the TaqMan Universal PCR Master Mix according to the manufacturer's protocol. SDS software (Applied Biosystems) was used to determine cycle threshold (Ct) values. Expression level was quantified relative to β-actin for mRNA and RNU6B for miRNA using the 2-ΔΔCt method (12).

SMILES: Cc1ccc(-c2cc(C(F)(F)F)nn2-c2ccc(S(N)(=O)=O)cc2)cc1 [celecoxib, Celecoxib]
- sphere formation ([1]; COX2 inhibitor added to erlotinib, basal-type cells, 72 hours): impaired
- sphere formation / sphere-forming ability ([1]; agent alone, bladder cancer cells): repressed
- let-7 expression [2]: restoration
- expression of several miRNAs [3]: induced
